For experiment [1], the system named is KM12. The experiment can be described thus: cells. It counts as cell-based, human. As to conditions: for IC50: Homo sapiens, KM12, 48 h, read-out: IC50, cellular anti-proliferative assay.
Experiment [2] deals with MDA-MB-435. The experiment can be described thus: cells. The format is cell-based, human. Conditions: for IC50: Homo sapiens, MDA-MB-435, 48 h, read-out: IC50, cellular anti-proliferative assay.
The test system of experiment [3] is NCI-H322M. In words: cells. Conditions: for IC50: Homo sapiens, NCI-H322M, 48 h, read-out: IC50, cellular anti-proliferative assay. The format is cell-based, human.
Experiment [4] concerns the target T1, CDK3/cyclin E (Homo sapiens, UniProt Q00526).
T1 construct: C-terminal 6His-tagged recombinant human full-length cdk3 (MW=36 kDa); made in house; host or cells: Sf21 insect cells (baculovirus)
The experiment can be described thus: biochemical.

The target in experiment [5] is T2, CDK9/cyclin T1 (Homo sapiens, UniProt P50750).
T2 construct: C-terminal 6His-tagged, full-length recombinant, human cdk9 (MW=44 kDa); made in house; host or cells: Sf21 insect cells (baculovirus)
T2 sequence (P50750 whole entry): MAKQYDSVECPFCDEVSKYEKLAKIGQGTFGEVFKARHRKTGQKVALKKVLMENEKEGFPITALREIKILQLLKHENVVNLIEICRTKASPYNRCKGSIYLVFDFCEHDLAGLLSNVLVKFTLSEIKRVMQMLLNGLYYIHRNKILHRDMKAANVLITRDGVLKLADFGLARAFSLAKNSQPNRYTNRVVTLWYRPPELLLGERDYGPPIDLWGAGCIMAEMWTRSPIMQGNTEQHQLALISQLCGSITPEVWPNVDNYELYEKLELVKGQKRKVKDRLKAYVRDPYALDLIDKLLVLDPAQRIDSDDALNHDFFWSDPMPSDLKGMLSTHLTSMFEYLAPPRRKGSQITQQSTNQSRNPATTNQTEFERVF
T2 sequence (O60563 whole entry partner): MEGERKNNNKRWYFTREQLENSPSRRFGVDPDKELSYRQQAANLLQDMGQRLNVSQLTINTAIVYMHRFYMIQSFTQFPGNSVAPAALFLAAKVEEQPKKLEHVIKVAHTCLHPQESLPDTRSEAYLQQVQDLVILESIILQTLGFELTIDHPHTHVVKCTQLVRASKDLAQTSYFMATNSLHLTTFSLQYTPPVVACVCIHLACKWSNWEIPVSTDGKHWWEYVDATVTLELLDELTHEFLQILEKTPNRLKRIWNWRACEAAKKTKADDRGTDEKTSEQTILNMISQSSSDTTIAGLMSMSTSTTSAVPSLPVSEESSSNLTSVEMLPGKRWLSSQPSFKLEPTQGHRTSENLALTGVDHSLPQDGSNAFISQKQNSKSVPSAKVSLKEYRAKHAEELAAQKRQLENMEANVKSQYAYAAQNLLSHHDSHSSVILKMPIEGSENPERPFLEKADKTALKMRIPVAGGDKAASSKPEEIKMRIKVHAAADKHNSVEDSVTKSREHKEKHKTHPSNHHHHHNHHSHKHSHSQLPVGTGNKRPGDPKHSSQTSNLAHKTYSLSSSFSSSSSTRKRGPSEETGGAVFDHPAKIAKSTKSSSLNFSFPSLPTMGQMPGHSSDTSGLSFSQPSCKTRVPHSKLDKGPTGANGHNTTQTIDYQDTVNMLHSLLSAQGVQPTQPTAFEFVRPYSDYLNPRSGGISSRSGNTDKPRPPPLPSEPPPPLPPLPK
The experiment can be described thus: biochemical.

Experiment [6] has as its system MDA-MB-231. In words: cells. The format is cell-based, human. As to conditions: for IC50: Homo sapiens, MDA-MB-231, 48 h, read-out: IC50, cellular anti-proliferative assay.
For experiment [7], the system named is HT29. The experiment can be described thus: cells. It counts as cell-based, human. As to conditions: for IC50: Homo sapiens, HT-29, 48 h, read-out: IC50, cellular anti-proliferative assay.
In experiment [8] the test system is RPMI-8226. The experiment can be described thus: cells. As to conditions: for IC50: Homo sapiens, RPMI-8226, 48 h, read-out: IC50, cellular anti-proliferative assay. The format is cell-based, human.
In experiment [9] the test system is IGROV1. The experiment can be described thus: cells. The format is cell-based, human. Conditions: for IC50: Homo sapiens, IGROV-1, 48 h, read-out: IC50, cellular anti-proliferative assay.
Experiment [10] concerns the target T3, CDK2/cyclin E (Homo sapiens, UniProt P24941).
T3 construct: C-terminal 6His-tagged, recombinant full-length CDK2 (MW=34 kDa); made in house; host or cells: Sf21 insect cells (baculovirus)
The experiment can be described thus: biochemical.

Experiment [11] has as its system M14. In words: cells. Conditions: for IC50: Homo sapiens, M14, 48 h, read-out: IC50, cellular anti-proliferative assay. It counts as cell-based, human.
Experiment [12] concerns HS 578T. The experiment can be described thus: cells. As to conditions: for IC50: Homo sapiens, Hs-578T, 48 h, read-out: IC50, cellular anti-proliferative assay. It counts as cell-based, human.
For experiment [13], the system named is SW-620. In words: cells. It counts as cell-based, human. Conditions: for IC50: Homo sapiens, SW-620, 48 h, read-out: IC50, cellular anti-proliferative assay.

T1 sequence (Q00526 whole entry): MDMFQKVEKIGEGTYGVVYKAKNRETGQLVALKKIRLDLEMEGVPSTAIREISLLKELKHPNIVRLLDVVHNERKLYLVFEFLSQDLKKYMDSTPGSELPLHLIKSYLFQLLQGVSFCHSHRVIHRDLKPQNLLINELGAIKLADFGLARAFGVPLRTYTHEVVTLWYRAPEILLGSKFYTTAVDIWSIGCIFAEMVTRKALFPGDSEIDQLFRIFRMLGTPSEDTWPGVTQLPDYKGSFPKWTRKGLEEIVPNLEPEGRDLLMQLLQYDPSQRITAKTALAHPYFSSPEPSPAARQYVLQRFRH
T1 sequence (P24864 whole entry, further chain): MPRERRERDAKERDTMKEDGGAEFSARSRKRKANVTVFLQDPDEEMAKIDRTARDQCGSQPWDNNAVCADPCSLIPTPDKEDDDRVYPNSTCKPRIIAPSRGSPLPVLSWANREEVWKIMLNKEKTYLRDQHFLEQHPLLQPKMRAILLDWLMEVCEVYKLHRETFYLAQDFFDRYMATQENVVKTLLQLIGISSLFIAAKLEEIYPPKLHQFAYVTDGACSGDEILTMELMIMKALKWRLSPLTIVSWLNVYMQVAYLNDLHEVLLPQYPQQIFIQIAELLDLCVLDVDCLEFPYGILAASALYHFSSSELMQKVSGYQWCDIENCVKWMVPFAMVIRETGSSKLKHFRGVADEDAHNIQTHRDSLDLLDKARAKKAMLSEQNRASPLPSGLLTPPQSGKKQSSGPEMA

On to `CC(C)(C)c1cnc(CSc2cnc(NC(=O)Cc3ccc(N(CCCl)CCCl)cc3)s2)o1` [CY-201, 2-(4-(bis(2-chloroethyl)amino)phenyl)-N-(5-((5-tert-butyloxazol-2-yl)methylthio)thiazol-2-yl)acetamide], for which the Ratio in experiment [1] was determined as 1570.4; in [2] it was 1577.6; in [3] it was 1380.4; in experiment [6] it was 727.8; in experiment [7] it was 1227.4; in [8], 280.5. The Ratio in experiment [9] is 1088.9; in [11], 1083.9; in experiment [12], 1273.5; in experiment [13], 895.4. Also, the IC50 (commonly the point on the concentration scale where inhibition reaches its midpoint) stood at 91 nM in experiment [1]; 79 nM in experiment [2]; 148 nM in experiment [3]; 45.6 nM in experiment [4]; 90.4 nM in experiment [5]; 219 nM in experiment [6]. The 50% inhibitory concentration (IC50) in [7] is 107 nM; in experiment [8], 269 nM; in experiment [9] it was 107 nM; in experiment [10], 2.7 nM; in experiment [11], 58 nM; in experiment [12], 148 nM. Moreover, the IC50 in experiment [13] came to 98 nM. The “fold more potent than the parental drug Chlorambucil” value in experiment [2] is “more than 1,500 fold”.
For the molecule `O=C(O)CCCc1ccc(N(CCCl)CCCl)cc1` [Chlorambucil, reference compound], the 50% inhibitory concentration (IC50) stood at 143000 nM in [1]; 125000 nM in experiment [2]; 204000 nM in [3]; 159000 nM in [6]; 132000 nM in experiment [7]; 75500 nM in experiment [8]. Besides, the half-maximal inhibitory concentration (IC50) in experiment [9] was 117000 nM; in [11], 62400 nM; in [12] it was 188000 nM; in [13] it was 87500 nM. For the same molecule, in experiment [4], the “CDK IC50, CDK3/cyclin E (Chlorambucil)” value is “No activity”. For the same molecule, the “CDK IC50, CDK9/cyclin T1 (Chlorambucil)” value in experiment [5] is on record as “No activity”. Besides, the “CDK IC50, CDK2/cyclin E (Chlorambucil)” value in experiment [10] was “No activity”.

The values above are taken from US8962855B2 (priority 2011, dated 2015).
